According to US9656962B2, “Ring-contracted morphinans and the use thereof” (Purdue Pharma L.P., priority 2013, dated 2017):

Assays:
κ-opioid receptor [1] = target: T1, κ-opioid receptor (Homo sapiens (Human), UniProt P41145); assay: κ-opioid receptor [35S]GTPγS functional assay, HEK-293 cells (Table 6); type: biochemical
Description: κ-Opioid Receptor Functional Assay Procedures: Functional [^35S]GTPγS binding assays were conducted as follows. κ opioid receptor membrane solution was prepared by sequentially adding final concentrations of 0.026 μg/μl κ membrane protein (in-house), 10 μg/mL saponin, 3 μM GDP and 0.20 nM [^35S]GTPγS to binding buffer (100 mM NaCl, 10 mM MgCl2, 20 mM HEPES, pH 7.4) on ice. The prepared membrane solution (190 μl/well) was transferred to 96-shallow well polypropylene plates containing 10 μl of 20× concentrated stock solutions of agonist prepared in DMSO. Plates were incubated for 30 min at a temperature of about 25° C. with shaking. Reactions were terminated by rapid filtration onto 96-well Unifilter GF/B filter plates (Perkin Elmer, Shelton, Conn.) using a 96-well tissue harvester (Packard) and followed by three filtration washes with 200 μl ice-cold binding buffer (10 mM NaH2PO4, 10 mM Na2HPO4, pH 7.4). Filter plates were subsequently dried at 50° C. for 2-3 hours. Fifty μl/well scintillation cocktail (Perkin Elmer, Shelton, Conn.) was added and plates were counted in a Packard Top-Count for 1 min/well. […]
The following TABLE 6 provides results on the activity response of certain Compounds of the Invention at the μ- and κ-opioid receptors determined as described above using HEK-293 cells.

μ-opioid receptor [2] = target: T2, μ-opioid receptor (Homo sapiens (Human), UniProt P35372); assay: μ-opioid receptor [35S]GTPγS functional assay, HEK-293 cells (Table 6); type: biochemical
Procedure, shortened: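 [35S]GTPγS (0.20 nM) binding in HEK-293 membranes expressing recombinant receptor (0.026 mg/mL protein), with GDP (3 mM) and saponin, HEPES buffer pH 7.4, 30 min at about 25° C. Bound radioactivity collected by filtration and counted. Emax (%) expressed relative to DAMGO from sigmoidal dose-response fits.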

[3] = target: recombinant human kappa opioid receptor (κ) (Homo sapiens (Human), UniProt P41145); assay: κ-opioid receptor radioligand binding assay ([3H]-U69,593); conditions: binding affinity
Description: κ-Opioid Receptor Binding Assay Procedures: Membranes from HEK-293 cells, CHO cells or U-2 OS cells expressing the recombinant human kappa opioid receptor (κ) were prepared by lysing cells in ice cold hypotonic buffer (2.5 mM MgCl2, 50 mM HEPES, pH 7.4) (10 mL/10 cm dish) followed by homogenization with a tissue grinder/Teflon pestle. Membranes from a cell line naturally expressing kappa opioid receptor can also be used. Membranes were collected by centrifugation at 30,000×g for 15 min at 4° C. and pellets were resuspended in hypotonic buffer to a final concentration of 1-3 mg/mL. Protein concentrations were determined using the BioRad protein assay reagent with bovine serum albumen as standard. Aliquots of κ receptor membranes were stored at −80° C.
Radioligand dose displacement assays used 0.4 nM [^3H]-U69,593 (GE Healthcare, Piscataway, N.J.; 40 Ci/mmole) with 15 μg membrane protein (recombinant opioid receptor expressed in HEK 293 cells; in-house prep) in a final volume of 200 μl binding buffer (5% DMSO, 50 mM Trizma base, pH 7.4). Non-specific binding was determined in the presence of 10 μM unlabeled naloxone or U69,593. All reactions were performed in 96-well polypropylene plates for 1 hour at a temperature of about 25° C. Binding reactions were terminated by rapid filtration onto 96-well Unifilter GF/C filter plates (Perkin Elmer, Shelton, Conn.) presoaked in 0.5% polyethylenimine (Sigma). Harvesting was performed using a 96-well tissue harvester (Perkin Elmer, Shelton, Conn.) followed by five filtration washes with 200 μl ice-cold binding buffer. Filter plates were subsequently dried at 50° C. for 1-2 hours. Fifty μl/well scintillation cocktail (Perkin Elmer, Shelton, Conn.) was added and plates were counted in a Packard Top-Count for 1 min/well.

μ-opioid receptor [4] = target: T2, μ-opioid receptor; assay: μ-opioid receptor [35S]GTPγS functional assay, HEK-293 or CHO cells (Table 4); type: biochemical; conditions: for Emax: relative to DAMGO
Procedure, shortened: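 Membranes from HEK-293, CHO or U-2 OS cells (or commercial) expressing recombinant μ receptor; 0.20 nM [35S]GTPγS, 3 mM GDP, saponin, in 100 mM NaCl/10 mM MgCl2/20 mM HEPES pH 7.4.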

μ-opioid receptor [5] = target: T2, μ-opioid receptor; assay: μ-opioid receptor [35S]GTPγS functional assay, U-2 OS cells (Table 5); type: biochemical; conditions: for Emax: relative to DAMGO
Procedure, shortened: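 Membranes (0.026 mg/mL) from cells expressing recombinant human μ-opioid receptor in a U-2 OS background were incubated with 0.20 nM [35S]GTPγS, 3 mM GDP and saponin in 20 mM HEPES pH 7.4, 100 mM NaCl, 10 mM MgCl2 for 30 min at about 25 °C. Filter-bound radioactivity counted; sigmoidal dose-response fits gave values, Emax relative to DAMGO.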

κ-opioid receptor [6] = target: T1, κ-opioid receptor; assay: κ-opioid receptor [35S]GTPγS functional assay, U-2 OS cells (Table 5); type: biochemical; conditions: for Emax: relative to U69,593; for EC50: κ GTP
Procedure, shortened: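 [35S]GTPγS binding in κ receptor membranes (0.026 μg/μl protein) with 10 μg/mL saponin, 3 μM GDP and 0.20 nM [35S]GTPγS in pH 7.4 HEPES/NaCl/MgCl2 buffer. Agonist incubation lasted 30 min at about 25 °C, followed by filtration and scintillation counting. Emax is expressed relative to U69,593.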

κ-opioid receptor [7] = target: T1, κ-opioid receptor; assay: κ-opioid receptor [35S]GTPγS functional assay, HEK-293 or CHO cells (Table 4); type: biochemical; conditions: for Emax: relative to U69,593; for EC50: κ GTP
Description: (§1) κ-Opioid Receptor Functional Assay Procedures: Functional [^35S]GTPγS binding assays were conducted as follows. κ opioid receptor membrane solution was prepared by sequentially adding final concentrations of 0.026 μg/μl κ membrane protein (in-house), 10 μg/mL saponin, 3 μM GDP and 0.20 nM [^35S]GTPγS to binding buffer (100 mM NaCl, 10 mM MgCl2, 20 mM HEPES, pH 7.4) on ice. The prepared membrane solution (190 μl/well) was transferred to 96-shallow well polypropylene plates containing 10 μl of 20× concentrated stock solutions of agonist prepared in DMSO. Plates were incubated for 30 min at a temperature of about 25° C. with shaking. Reactions were terminated by rapid filtration onto 96-well Unifilter GF/B filter plates (Perkin Elmer, Shelton, Conn.) using a 96-well tissue harvester (Packard) and followed by three filtration washes with 200 μl ice-cold binding buffer (10 mM NaH2PO4, 10 mM Na2HPO4, pH 7.4). Filter plates were subsequently dried at 50° C. for 2-3 hours. Fifty μl/well scintillation cocktail (Perkin Elmer, Shelton, Conn.) was added and plates were counted in a Packard Top-Count for 1 min/well.
κ GTP Emax (%) is the maximal effect elicited by a compound relative to the effect elicited by U69,593.
In TABLE 4, activity response of certain Compounds of the Invention to the μ- and κ-opioid receptors was determined as described above for functional assays using HEK-293 or CHO cells.

[8] = target: human opioid receptor-like receptor (ORL-1) (Homo sapiens (Human), UniProt P41146); assay: ORL-1 receptor radioligand binding assay ([3H]-nociceptin); conditions: binding affinity, read-out: Ki (nM) ORL-1
Description: ORL-1 Receptor Binding Assay Procedure: Membranes from recombinant HEK-293 cells expressing the human opioid receptor-like receptor (ORL-1) (Perkin Elmer, Shelton, Conn.) was prepared by lysing cells in ice-cold hypotonic buffer (2.5 mM MgCl2, 50 mM HEPES, pH 7.4) (10 ml/10 cm dish) followed by homogenization with a tissue grinder/Teflon pestle. Membranes were collected by centrifugation at 30,000×g for 15 min at 4° C. and pellets resuspended in hypotonic buffer to a final concentration of 1-3 mg/ml. Protein concentrations were determined using the BioRad protein assay reagent with bovine serum albumen as standard. Aliquots of the ORL-1 receptor membranes were stored at −80° C.
Radioligand binding assays (screening and dose-displacement) use 0.1 nM [^3H]-nociceptin (Perkin Elmer, Shelton, Conn.; 87.7 Ci/mmole) with 12 μg membrane protein in a final volume of 500 μl binding buffer (10 mM MgCl2, 1 mM EDTA, 5% DMSO, 50 mM HEPES, pH 7.4). Non-specific binding was determined in the presence of […] unlabeled nociceptin (American Peptide Company). […] Fifty μl/well scintillation cocktail (Perkin Elmer, Shelton, Conn.) was added and plates are counted in a Packard Top-Count for 1 min/well. The data from screening and dose-displacement experiments were analyzed using Microsoft Excel and the curve fitting functions in GraphPad PRISM™, v. […]

δ-opioid receptor = δ-opioid receptor (Homo sapiens (Human), UniProt P41143); assay: δ-opioid receptor [35S]GTPγS functional assay (Table 4); type: biochemical
Description: as §1, with “δ-Opioid” for “κ-Opioid”, “δ” for “κ”, “(Perkin Elmer, Shelton, Conn.),” for “(in-house),”, “shaking” for “shaking.”, “1-2” for “2-3”, “Top-count” for “Top-Count”
δ GTP Emax (%) is the maximal effect elicited by a compound relative to the effect elicited by met-enkephalin.

Sequence of δ-opioid receptor (P41143 whole entry, looked up): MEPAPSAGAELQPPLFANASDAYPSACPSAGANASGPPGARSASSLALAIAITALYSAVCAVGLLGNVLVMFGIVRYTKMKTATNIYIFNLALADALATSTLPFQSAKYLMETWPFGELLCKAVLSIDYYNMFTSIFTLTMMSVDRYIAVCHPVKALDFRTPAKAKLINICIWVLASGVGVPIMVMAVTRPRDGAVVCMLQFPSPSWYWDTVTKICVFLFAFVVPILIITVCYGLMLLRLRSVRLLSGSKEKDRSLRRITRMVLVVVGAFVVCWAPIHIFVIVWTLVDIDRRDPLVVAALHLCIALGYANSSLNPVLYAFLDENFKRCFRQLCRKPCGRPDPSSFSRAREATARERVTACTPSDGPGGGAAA

| Structure (SMILES) | Emax (κ-opioid receptor [1]; relative to U69,593) [%] | EC50 (κ-opioid receptor [1]; κ GTP) [nM] | Emax (μ-opioid receptor [2]; relative to DAMGO) [%] | EC50 (μ-opioid receptor [2]; μ GTP) [nM] | Ki [3] [nM] | Emax (μ-opioid receptor [4]) [%] | Emax (μ-opioid receptor [5]) [%] | Emax (κ-opioid receptor [6]) [%] | EC50 (κ-opioid receptor [6]) [nM] | Emax (κ-opioid receptor [7]) [%] | EC50 (κ-opioid receptor [7]) [nM] | Ki [8] [nM] | Emax (δ-opioid receptor; relative to met-enkephalin) [%] | EC50 (δ-opioid receptor; δ GTP) [nM] | EC50 (μ-opioid receptor [4]; μ GTP) [nM] | EC50 (μ-opioid receptor [5]; μ GTP) [nM] |
| --- | --- | --- | --- | --- | --- | --- | --- | --- | --- | --- | --- | --- | --- | --- | --- | --- |
| CN1CC[C@]23C[C@H](C(=O)NCCc4ccccc4)C[C@@]2(O)[C@H]1Cc1ccc(O)cc13 [Compound 108, (2S,3aS,4R,9bS)-3a,8-dihydroxy-12-methyl-N-phenethyl-1,2,3,3a,4,5-hexahydro-4,9b-(epiminoethano)cyclo-penta[a]naphthalene-2-carboxamide] | 40.6 ± 3.3 | 138 ± 35 | 83.3 ± 5.17 | 12.4 ± 2.76 | 9.29 ± 2.14 |  |  |  |  |  |  |  |  |  |  |  |
| N=C(N)NCCNC(=O)[C@@H]1C[C@]23CCN(CC4CC4)[C@H](Cc4ccc(O)cc42)[C@]3(O)C1 [Compound 6, (2R,3aS,4R,9bS)-12-(cyclopropylmethyl)-N-(2-guanidinoethyl)-3a,8-dihydroxy-1,2,3,3a,4,5-hexahydro-4,9b-(epimino-ethano)cyclopenta[a]naphthalene-2-carboxamide] |  |  |  |  | 0.098 ± 0.032 | 0 | 57 ± 2.08 | 98 ± 3.21 | 0.87 ± 0.16 | 48.6 ± 0.98 | 0.86 ± 0.16 | 10300 ± 2140 |  |  |  |  |
| Cc1ccc(CNC(=O)[C@H]2C[C@]34CCN(CC5CC5)[C@H](Cc5ccc(O)cc53)[C@]4(O)C2)cc1 [Compound 38, (2S,3aS,4R,9bS)-12-(cyclopropylmethyl)-3a,8-dihydroxy-N-(4-methylbenzyl)-1,2,3,3a,4,5-hexahydro-4,9b-(epiminoethano)cyclopenta[a]naphthalene-2-carboxamide] |  |  |  |  | 0.16 ± 0.044 | 56.5 ± 2.6 | 77.7 ± 2.4 | 105 ± 3.18 | 0.065 ± 0.01 | 96.3 ± 3.18 | 0.43 ± 0.048 |  | 50.1 ± 1.25 | 1.56 ± 0.055 | 0.62 ± 0.12 | 0.25 ± 0.024 |
